According to PubChem BioAssay (NCI):
“And” between values parts separate entries of the source, which are not always exact repeats. Identical values can stand only once.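 Cells were grown in 96-well plates and exposed to each compound for 48 hours at five concentrations; endpoints were interpolated linearly between bracketing concentrations, or set to the highest concentration if not reached. Abbreviation: GI50, concentration required for 50% inhibition of growth. At the TGI there is no net growth.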

Test system: OVCAR-4 ovarian
Experiment: DTP human tumour cell line panel, 48 h

Row | Structure (SMILES) | GI50 | TGI
1 | O=C(Cn1c(=O)c(-c2ccccc2)nc2ccccc21)Nc1ccc(F)cc1 | 47.3 µM | > 100 µM
2 | CCOC(=O)c1c2c(n(Cc3ccc(Cl)cc3Cl)c1C)-c1nc[nH]c1C(=O)C2=O | 6.58 µM | 19.3 µM
3 | COc1cccc2c1C(=O)c1c(O)c3c(c(O)c1C2=O)CC(O)(C(O)CO)CC3OC1CC(N2CCOCC2)C(O)C(C)O1 (stereo not drawn) | 0.0145 µM | 
4 | O=C(O)C1OC1(c1cccc(Cl)c1)c1ccccc1Cl (stereo not drawn) |  | > 100 µM
5 | CCCCC[C@H]1C/C=C2/C(=O)C=C[C@@H]2C/C=C\CCCC(=O)O[C@@H](CCCCC)C/C=C2/C(=O)C=C[C@@H]2C/C=C\CCCC(=O)O1 | 0.475 µM | 2.67 µM
6 | COC1/C=C/C(C)C(C(C)C(OC)C(C)CCC(=O)C(C)C(C/C=C/N(C)C=O)OC)OC(=O)/C=C/C=C(\C)CC(OC)CC2=CC(=O)O[C@H](C2)C(C)C(OC)CC(OC)/C=C/C(C)C(OC)C1 (stereo partly drawn) | 0.0108 µM | 
7 | Cc1cc(C(=C2C=CC(=Nc3ccccc3)C=C2)c2ccc(Nc3ccccc3)cc2)ccc1N | 0.355 µM | 1.31 µM
8 | CNCCCn1c2c(c3ccc([N+](=O)[O-])cc3c1=O)C(=O)c1cc(OC)cnc1-2 | 0.173 µM | 10.1 µM
9 | C#CC1(O)C(COP(=O)(O)OC(COCCCCCCCCCCCCCCCCCC)COP(=O)(O)OCC2OC(n3cc(F)c(=O)[nH]c3=O)CC2O)OC(n2ccc(N)nc2=O)C1O (stereo not drawn) | 3.05 µM and 1.5 µM | 31.4 µM and 23.4 µM
10 | Cc1cc(Cl)ccc1Nc1nc(C(F)(F)F)ccc1C(=O)N/N=C/c1ccc(Cl)cc1 | 1.46 µM | 21.2 µM
11 | COc1cc2oc3cc(=O)cc4oc(-c5ccccc5)cc(c2c2c1CCC(c1ccccc1)O2)c43 (stereo not drawn) |  | > 100 µM
12 | c1cc2n(n1)CCN2 |  | > 9780 µM
13 | COc1cc(Nc2c(C#N)cnc3cc(OCCCN4CCN(C)CC4)c(OC)cc23)c(Cl)cc1Cl | 4.6 µM | 21 µM
14 | O=CN/C=C/c1cccc(O)c1 |  | > 93.8 µM
15 | Nc1ccc2c(SCc3ccc([N+](=O)[O-])cc3)c3ccccc3nc2c1 |  | 30.6 µM
16 | COC1=CC(c2ccc[nH]2)=N/C1=C\c1[nH]c(C)c(C(=O)CCCCC(=O)NC(C)(C)C)c1C | 1.78 µM | 6.29 µM
17 | O=c1ccn(C2CC(O)C(CO)O2)c(=O)[nH]1 (stereo not drawn) | > 5000 µM | > 5000 µM
18 | O=C(N/C(=C/c1ccc(Cl)cc1Cl)c1nc2ccccc2s1)c1ccccc1 |  | 33.7 µM
19 | CCOC(=O)c1cc2c(n1Cc1cccc(OC)c1)-c1oncc1CCC2 | 8.38 µM | > 100 µM
20 | COc1c(O)cc2oc(-c3ccc(O)cc3)cc(=O)c2c1O |  | > 100 µM
21 | O=c1cc(-c2ccccc2F)[nH]c2ccc(N3CCCC3)cc12 |  | 55.3 µM
22 | c1csc(-c2cn3nc(-c4c[nH]c5ccccc45)sc3n2)c1 | 4.42 µM | > 100 µM
23 | COc1cc2ccccc2oc1=O |  | > 100 µM
24 | O=C1c2cccc(NCCN=Cc3cc([N+](=O)[O-])ccc3O)c2C(=O)c2c(NCCN=Cc3cc([N+](=O)[O-])ccc3O)cccc21 | 2.06 µM | > 100 µM
25 | COc1ccc2c(=O)cc(-c3ccncc3)oc2c1OC |  | > 100 µM
26 | O=C(O)c1cc2ccc3ccccc3c2oc1=O |  | > 100 µM
27 | COC(=O)[C@@]12OC[C@]34[C@H]([C@@H](O)[C@@H]1O)[C@@]1(C)[C@H](O)C(=O)C=C(C)[C@@H]1C[C@H]3OC(=O)C(OC(C)=O)[C@@H]24 (stereo partly drawn) | 0.0398 µM | 0.272 µM

Test system: OVCAR-5 ovarian
Experiment: DTP human tumour cell line panel, 48 h

Row | Structure (SMILES) | GI50 | TGI
28 | C[C@]12CCc3sc(NCCc4ccccc4)nc3C1=CC[C@@H]1[C@@H]2CC[C@]2(C)C(=O)CC[C@@H]12 | 4.44 µM | 65.9 µM
29 | CCN(Cc1ccc(F)cc1)c1ccc(CO)c(F)c1 | 1.26 µM | 4.13 µM
30 | c1ccc(CN2CCC3(CC2)SSC2(CCN(Cc4ccccc4)CC2)S3)cc1 |  | > 100 µM
31 | O=C(Cn1c(=O)c(-c2ccccc2)nc2ccccc21)Nc1ccc(F)cc1 | > 100 µM | > 100 µM
32 | COc1cccc2c1C(=O)c1c(O)c3c(c(O)c1C2=O)CC(O)(C(O)CO)CC3OC1CC(N2CCOCC2)C(O)C(C)O1 (stereo not drawn) | 0.0331 µM | 0.0926 µM and 0.0935 µM
33 | O=C(O)C1OC1(c1cccc(Cl)c1)c1ccccc1Cl (stereo not drawn) |  | > 100 µM
34 | CCCCC[C@H]1C/C=C2/C(=O)C=C[C@@H]2C/C=C\CCCC(=O)O[C@@H](CCCCC)C/C=C2/C(=O)C=C[C@@H]2C/C=C\CCCC(=O)O1 | 0.566 µM | 1.31 µM
35 | COC1/C=C/C(C)C(C(C)C(OC)C(C)CCC(=O)C(C)C(C/C=C/N(C)C=O)OC)OC(=O)/C=C/C=C(\C)CC(OC)CC2=CC(=O)O[C@H](C2)C(C)C(OC)CC(OC)/C=C/C(C)C(OC)C1 (stereo partly drawn) | 0.119 µM | 0.714 µM
36 | Cc1cc(C(=C2C=CC(=Nc3ccccc3)C=C2)c2ccc(Nc3ccccc3)cc2)ccc1N | 0.245 µM | 0.671 µM
37 | CNCCCn1c2c(c3ccc([N+](=O)[O-])cc3c1=O)C(=O)c1cc(OC)cnc1-2 | 0.135 µM | 0.882 µM
38 | C#CC1(O)C(COP(=O)(O)OC(COCCCCCCCCCCCCCCCCCC)COP(=O)(O)OCC2OC(n3cc(F)c(=O)[nH]c3=O)CC2O)OC(n2ccc(N)nc2=O)C1O (stereo not drawn) | 1.04 µM and 2.99 µM | > 46.2 µM and 68.6 µM
39 | Cc1cc(Cl)ccc1Nc1nc(C(F)(F)F)ccc1C(=O)N/N=C/c1ccc(Cl)cc1 | 2.07 µM | 6.64 µM
40 | COc1cc2oc3cc(=O)cc4oc(-c5ccccc5)cc(c2c2c1CCC(c1ccccc1)O2)c43 (stereo not drawn) |  | > 100 µM
41 | c1cc2n(n1)CCN2 |  | > 10000 µM
42 | COc1cc(Nc2c(C#N)cnc3cc(OCCCN4CCN(C)CC4)c(OC)cc23)c(Cl)cc1Cl | 1.19 µM | 16.2 µM
43 | O=CN/C=C/c1cccc(O)c1 |  | > 96.1 µM
44 | Nc1ccc2c(SCc3ccc([N+](=O)[O-])cc3)c3ccccc3nc2c1 |  | 35.9 µM
45 | COC1=CC(c2ccc[nH]2)=N/C1=C\c1[nH]c(C)c(C(=O)CCCCC(=O)NC(C)(C)C)c1C | 1.89 µM | 8.73 µM
46 | O=c1ccn(C2CC(O)C(CO)O2)c(=O)[nH]1 (stereo not drawn) | > 5000 µM | > 5000 µM
47 | O=C(N/C(=C/c1ccc(Cl)cc1Cl)c1nc2ccccc2s1)c1ccccc1 |  | 32 µM
48 | CCOC(=O)c1cc2c(n1Cc1cccc(OC)c1)-c1oncc1CCC2 | 6.31 µM | > 100 µM
49 | COc1c(O)cc2oc(-c3ccc(O)cc3)cc(=O)c2c1O |  | > 100 µM
50 | O=c1cc(-c2ccccc2F)[nH]c2ccc(N3CCCC3)cc12 | 2.53 µM | > 100 µM
51 | c1csc(-c2cn3nc(-c4c[nH]c5ccccc45)sc3n2)c1 | 4.27 µM | 76.4 µM
52 | COc1cc2ccccc2oc1=O |  | > 100 µM
53 | O=C1c2cccc(NCCN=Cc3cc([N+](=O)[O-])ccc3O)c2C(=O)c2c(NCCN=Cc3cc([N+](=O)[O-])ccc3O)cccc21 | 31.6 µM | > 100 µM
54 | COc1ccc2c(=O)cc(-c3ccncc3)oc2c1OC |  | > 100 µM
55 | O=C(O)c1cc2ccc3ccccc3c2oc1=O |  | > 100 µM
56 | COC(=O)[C@@]12OC[C@]34[C@H]([C@@H](O)[C@@H]1O)[C@@]1(C)[C@H](O)C(=O)C=C(C)[C@@H]1C[C@H]3OC(=O)C(OC(C)=O)[C@@H]24 (stereo partly drawn) | 0.069 µM | 0.41 µM

Test system: MALME-3M melanoma
Experiment: DTP human tumour cell line panel, 48 h

Row | Structure (SMILES) | GI50 | TGI
57 | C[C@]12CCc3sc(NCCc4ccccc4)nc3C1=CC[C@@H]1[C@@H]2CC[C@]2(C)C(=O)CC[C@@H]12 | 2.18 µM | 6.82 µM
58 | CCN(Cc1ccc(F)cc1)c1ccc(CO)c(F)c1 | 18.7 µM | 43.9 µM
59 | c1ccc(CN2CCC3(CC2)SSC2(CCN(Cc4ccccc4)CC2)S3)cc1 |  | > 100 µM
60 | O=C(Cn1c(=O)c(-c2ccccc2)nc2ccccc21)Nc1ccc(F)cc1 | 43 µM | > 100 µM
61 | CCOC(=O)c1c2c(n(Cc3ccc(Cl)cc3Cl)c1C)-c1nc[nH]c1C(=O)C2=O | 11.6 µM | 27.4 µM
62 | COc1cccc2c1C(=O)c1c(O)c3c(c(O)c1C2=O)CC(O)(C(O)CO)CC3OC1CC(N2CCOCC2)C(O)C(C)O1 (stereo not drawn) | 0.0132 µM | 0.00768 µM and 0.0309 µM
63 | O=C(O)C1OC1(c1cccc(Cl)c1)c1ccccc1Cl (stereo not drawn) |  | 49.9 µM
64 | CCCCC[C@H]1C/C=C2/C(=O)C=C[C@@H]2C/C=C\CCCC(=O)O[C@@H](CCCCC)C/C=C2/C(=O)C=C[C@@H]2C/C=C\CCCC(=O)O1 | 0.338 µM | 0.885 µM
65 | COC1/C=C/C(C)C(C(C)C(OC)C(C)CCC(=O)C(C)C(C/C=C/N(C)C=O)OC)OC(=O)/C=C/C=C(\C)CC(OC)CC2=CC(=O)O[C@H](C2)C(C)C(OC)CC(OC)/C=C/C(C)C(OC)C1 (stereo partly drawn) | 0.0213 µM | 0.0582 µM and 0.0315 µM
66 | Cc1cc(C(=C2C=CC(=Nc3ccccc3)C=C2)c2ccc(Nc3ccccc3)cc2)ccc1N | 0.25 µM | 0.777 µM
67 | CNCCCn1c2c(c3ccc([N+](=O)[O-])cc3c1=O)C(=O)c1cc(OC)cnc1-2 | 0.175 µM | 0.923 µM
68 | C#CC1(O)C(COP(=O)(O)OC(COCCCCCCCCCCCCCCCCCC)COP(=O)(O)OCC2OC(n3cc(F)c(=O)[nH]c3=O)CC2O)OC(n2ccc(N)nc2=O)C1O (stereo not drawn) | 0.742 µM and 0.202 µM | 21.8 µM and 3.51 µM
69 | Cc1cc(Cl)ccc1Nc1nc(C(F)(F)F)ccc1C(=O)N/N=C/c1ccc(Cl)cc1 | 2.02 µM | 5.51 µM
70 | COc1cc2oc3cc(=O)cc4oc(-c5ccccc5)cc(c2c2c1CCC(c1ccccc1)O2)c43 (stereo not drawn) |  | > 100 µM
